This is an account of results in US20250221997A1, “TYK2 INHIBITOR FORMULATIONS AND METHODS OF MAKING THE SAME” (Takeda Pharmaceutical Company Limited, priority 2022, published 2025).

Molecules are shown by their SMILES. In brackets after ≈: the same amount, converted by molar mass. Entries after “also recorded” stand apart in the source; their conditions may differ.

Holding throughout (type): physicochemical
The nature of data set [1]: pKa, dissociation constant and pH of saturated aqueous solution. The note with it: read-out: pKa of the protonated form. The method, then:
The pKa of the protonated form of Compound 1 was determined to be 1.94±0.01. The pH of a saturated aqueous solution of Compound 1 was 8.6.

A short description of data set [2]: Solubility of drug substance in excipient Vitamin E TPGS. From the text: Vitamin E TPGS is a commercially available, non-ionic surfactant, derived from Vitamin E. It is commonly used to enhance the bioavailability of orally administered poorly water-soluble drugs.
A short description of data set [3]: Solubility of Compound 1 polymorphs in aqueous systems, buffer solutions and biorelevant media. Conditions: for Aqueous Solubility: Form C Lot: a, Form A Lot: b.
A short description of data set [4]: Polymorph screening, competitive slurry studies and humidity storage (form stability). From the text:
The key formulation challenge presented by Compound 1 was poor aqueous solubility. This could possibly limit absorption in vivo.

Data set [5] is described as follows: Hygroscopicity (water sorption vs relative humidity).

Usually pKa stands for the pH at which an ionisable group is half protonated. Broadly, the solubility is how much of the substance goes into solution per volume. Lower therefore signals a poorly soluble substance. For `CNc1cc(Nc2cccn(-c3ccccn3)c2=O)nc2c(C(=O)N[C@@H]3CC[C@H]3OC)cnn12` [Compound 1], the pKa in data set [1] stood at 1.94. Also, the “solubility in the excipient Vitamin E TPGS” value in data set [2] was “high solubility”. In addition, the solubility at 48 h in data set [3] (FaSSGF, pH 1.42, fassgf or other biorelevant, thermodynamic from solid) is 34.6 µg/mL (≈ 75.1 µM); in data set [3] (aqueous buffer, thermodynamic from solid, Initial Buffer pH 2.98, pH at 48 Hours 3.01, average of two runs) it was 18.9 µg/mL (≈ 41 µM); in data set [3] (aqueous buffer, thermodynamic from solid, Initial Buffer pH 4.46, pH at 48 Hours 4.49, average of two runs), 13.3 µg/mL (≈ 28.9 µM); in data set [3] (aqueous buffer, thermodynamic from solid, Initial Buffer pH 6.81, pH at 48 Hours 6.75, average of two runs) it was 4.1 µg/mL (≈ 8.9 µM); in data set [3] (pH 8.6, thermodynamic from solid, Unbuffered water, pH at 48 Hours 8.6, average of three runs) it was 5.5 µg/mL (≈ 11.9 µM); in data set [3] (simulated gastric fluid, thermodynamic from solid, Initial Buffer pH 1.21, pH at 48 Hours 1.19, average of two runs), 58.1 µg/mL (≈ 126 µM). The solubility at 48 h is 29.1 µg/mL (≈ 63.2 µM) in data set [3] (thermodynamic from solid, FaSSIF (pH 1.64), pH at 48 Hours 1.50, average of two runs) and 41 µg/mL (≈ 89 µM) in data set [3] (thermodynamic from solid, FeSSIF (pH 5.03), pH at 48 Hours 5.03, average of two runs).
As a reminder, the Aqueous Solubility is the dissolved amount per volume that the medium holds. A higher Aqueous Solubility goes with a readily soluble substance. As for `CNc1cc(Nc2cccn(-c3ccccn3)c2=O)nc2c(C(=O)N[C@@H]3CC[C@H]3OC)cnn12` [Form C], the Aqueous Solubility in data set [3] (10 mM HCl, pH 2.0) is 58 µg/mL; in data set [3] (50 mM Acetate buffer, pH 5.0), 13 µg/mL; in data set [3] (50 mM Phosphate buffer, pH 6.8), 4 µg/mL; in data set [3] (FaSSIF, pH 6.5) it was 29 µg/mL; in data set [3] (FcSSIF, pH 5.0), 41 µg/mL; in data set [3] (SGF, pH 1.2 (0.1% Triton X100)), 35 µg/mL. Also, the solubility in data set [3] (FaSSIF, pH 6.5, fassif, thermodynamic from solid) is 29 µg/mL (≈ 63 µM); in data set [3] (aqueous buffer, thermodynamic from solid, 50 mM Acetate buffer, pH 5.0), 13 µg/mL (≈ 28.2 µM); in data set [3] (aqueous buffer, thermodynamic from solid, 50 mM Phosphate buffer, pH 6.8) it was 4 µg/mL (≈ 8.69 µM); in data set [3] (aqueous with cosolvent or surfactant or cyclodextrin, thermodynamic from solid, SGF, pH 1.2 (0.1% Triton X100)), 35 µg/mL (≈ 76 µM); in data set [3] (simulated gastric fluid, thermodynamic from solid, 10 mM HCl, pH 2.0) it was 58 µg/mL (≈ 126 µM); in data set [3] (thermodynamic from solid, FeSSIF, pH 5.0) it was 41 µg/mL (≈ 89 µM). For the same molecule, in data set [4] (competitive slurry studies / polymorphs observed during development), the “relative stability of solid form” value is “most stable anhydrous, un-solvated form; also recorded: most stable polymorph observed to date”. Further, the “Conversion of Form C to Form A” value is “not observed” in data set [4] (in water itself after 1 day) and “no conversion to Form A was observed” in data set [4] (storage at 90% RH at room temperature for 11 days). Moreover, in data set [4] (solvent slurries), the “water activity, aw, above which anhydrous Form C converts to hydrate Form A” value was 0.62-0.82. The Hygroscopicity entry in data set [5] is “Limited hygroscopicity”. Besides, in data set [5] (at 75% RH), the “Hygroscopicity, wt gain” value is on record as “(1.75% wt gain at 75% RH)”. The molecule further showed a water sorption in data set [5] (between 5-95% relative humidity) of 1.75%.
